The source made the active and inactive calls.

The nature of assay [1]: cytotoxicity in MITF-independent A375 cells – cell-based, CellTiter-Glo luminescence, dry powder, set 4, counter-screen for MITF inhibitor project, dose response (AID 624364).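 Also: A375 melanoma cells are MITF independent so this is a counter screen.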 The format is functional. As to conditions: A-375.
Assay [2] is described as follows: viability loss in MITF-independent A375 cells – cell-based, CellTiter-Glo luminescence, dry powder, set 2, counter-screen for MITF inhibitor project, dose response (AID 624489).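 Also: actives are compounds lowering A375 viability meaning general cytotoxicity.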 In kind it is functional. The note with it: A-375. (ATP-based viability assays read luminescence as a measure of living cells.)
Assay [3] in a line: A2780 cell killing – plate reader, dry powder samples, cytotoxicity control, dose response (AID 743046). In kind it is functional, cell-based.
Assay [4] is described as follows: OVCAR-3 cell viability loss – plate reader, dry powder samples, PAX8 inhibitor project, dose response (AID 743044). In kind it is functional, cell-based.
Assay [5] is described as follows: viability loss in LCL cells – cell-based, plate reader, dry powder, set 2, cytotoxicity control, dose response (AID 624367). The format is functional.
Assay [6] in a line: toxicity toward immortalized ovarian surface epithelium – cell-based, plate reader, dry powder samples, cytotoxicity control for PAX8 inhibitor project, dose response (AID 743045). The format is functional.
In another assay the target is Paired box protein Pax-8 (Homo sapiens, UniProt Q06710). Kind of assay: PAX8 transcriptional activity inhibition in RMG-I – RMG-I cells, luciferase, cherry-pick, dose response (AID 687027).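 Also: luciferase reporter driven by Pax8 target thyroperoxidase promoter measured by SteadyGlo luminescence.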 In kind it is functional, cell-based.
Chain of Paired box protein Pax-8 (Q06710 whole entry): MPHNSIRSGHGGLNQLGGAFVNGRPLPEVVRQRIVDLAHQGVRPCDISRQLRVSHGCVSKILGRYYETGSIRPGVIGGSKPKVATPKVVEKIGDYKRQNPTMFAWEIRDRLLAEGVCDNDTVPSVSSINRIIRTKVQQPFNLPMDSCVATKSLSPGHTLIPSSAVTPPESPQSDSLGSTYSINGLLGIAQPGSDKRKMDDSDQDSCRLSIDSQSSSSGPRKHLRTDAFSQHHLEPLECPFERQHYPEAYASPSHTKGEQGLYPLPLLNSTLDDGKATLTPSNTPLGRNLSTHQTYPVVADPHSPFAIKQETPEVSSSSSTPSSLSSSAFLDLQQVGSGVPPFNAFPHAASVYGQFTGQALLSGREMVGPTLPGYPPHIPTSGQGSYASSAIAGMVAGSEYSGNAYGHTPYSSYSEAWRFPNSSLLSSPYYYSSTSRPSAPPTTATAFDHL
Assay [7] in a line: IGROV1 cell killing – plate reader, dry powder samples, PAX8 inhibitor project, dose response (AID 743043). The format is functional, cell-based. As to conditions: IGROV-1.
A short description of assay [8]: OVCAR8 cell viability loss – plate reader, dry powder samples, PAX8 project, dose response (AID 743197). In kind it is functional, cell-based. The note with it: OVCAR-8.
A short description of assay [9]: embryonic kidney cell viability loss – CellTiter-Glo luminescence, dry powder, set 20, cytotoxicity control, dose response (AID 1117293). The format is functional, cell-based. The note with it: HEK293.
A short description of assay [10]: MITF Orthogonal Assay: SK-MEL-5 CTG Assay Measured in Cell-Based System Using Plate Reader - 2084-02_Inhibitor_Dose_DryPowder_Activity_Set7. The format is functional.
Assay [11] is described as follows: MITF: Counter assay: A375 proliferation Measured in Cell-Based System Using Plate Reader - 2084-03_Inhibitor_Dose_DryPowder_Activity_Set8. In kind it is functional. As to conditions: A-375.
Assay [12] in a line: inhibitors of TRPM1-promoter reporter in SK-MEL-5 – cell-based, luciferase, dry powder, set 8, MITF inhibitor project, dose response (AID 624430). The format is functional.
A short description of another assay: cells. As to conditions: HEK293.
Assay [13] is described as follows: toxicity to HepG2 liver cells – cell-based, plate reader, dry powder, set 6, cytotoxicity control, dose response (AID 743311). The format is functional.
The nature of assay [14]: toxicity to A549 lung cells – cell-based, plate reader, dry powder, set 6, cytotoxicity control, dose response (AID 743312). The format is functional.
In another assay the target is Nonstructural protein 1 (Influenza A virus, UniProt Q194T2). In kind it is functional, Influenza A virus (A/California/07/2009(H1N1)).
Chain of Nonstructural protein 1 (Q194T2 whole entry): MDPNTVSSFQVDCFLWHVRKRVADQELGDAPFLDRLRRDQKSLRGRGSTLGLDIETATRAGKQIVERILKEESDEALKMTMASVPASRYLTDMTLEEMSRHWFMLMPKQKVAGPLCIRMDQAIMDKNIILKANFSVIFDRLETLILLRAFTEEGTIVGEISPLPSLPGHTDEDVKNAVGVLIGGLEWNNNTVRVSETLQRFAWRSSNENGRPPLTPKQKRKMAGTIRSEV
Assay [15] deals with Matrix metalloproteinase-14 (Homo sapiens, UniProt P50281). Kind of assay: Dose Response confirmation of uHTS hits for a small molecule inhibitors of MT1-MMP activation in a fluorescence assay set 2. In kind it is functional.
Assay [16] is described as follows: Luminescence-based cell-based high throughput dose response assay to identify activators of the DAF-12 from the parasite S. stercoralis (ssDAF-12). The format is functional.
In assay [17] the target is Bifunctional protein GlmU (Mycobacterium tuberculosis, UniProt P9WMN3). Kind of assay: Inhibitors of Mycobacterial Glucosamine-1-phosphate acetyl transferase (GlmU). Secondary screen. More on the design: species or system Mycobacterium tuberculosis H37Rv.
Chain of Bifunctional protein GlmU (P9WMN3 whole entry): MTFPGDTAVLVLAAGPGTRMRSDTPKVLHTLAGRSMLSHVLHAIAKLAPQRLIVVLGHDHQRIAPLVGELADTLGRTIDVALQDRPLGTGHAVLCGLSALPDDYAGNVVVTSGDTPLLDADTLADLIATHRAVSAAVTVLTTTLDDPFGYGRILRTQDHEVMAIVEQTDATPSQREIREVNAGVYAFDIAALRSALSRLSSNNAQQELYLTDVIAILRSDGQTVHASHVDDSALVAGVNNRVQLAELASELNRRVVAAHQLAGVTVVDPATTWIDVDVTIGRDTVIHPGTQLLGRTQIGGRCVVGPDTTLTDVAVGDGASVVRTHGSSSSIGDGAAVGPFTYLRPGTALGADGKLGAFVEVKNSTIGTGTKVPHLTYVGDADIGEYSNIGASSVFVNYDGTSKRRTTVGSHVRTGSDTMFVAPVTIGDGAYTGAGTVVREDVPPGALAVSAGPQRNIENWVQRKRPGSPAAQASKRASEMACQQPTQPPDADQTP
The target of another assay is fMet-Leu-Phe receptor (Homo sapiens, UniProt P21462). Kind of assay: formyl peptide receptor binders – dose response (AID 519). In kind it is functional.
Chain of fMet-Leu-Phe receptor (P21462 whole entry): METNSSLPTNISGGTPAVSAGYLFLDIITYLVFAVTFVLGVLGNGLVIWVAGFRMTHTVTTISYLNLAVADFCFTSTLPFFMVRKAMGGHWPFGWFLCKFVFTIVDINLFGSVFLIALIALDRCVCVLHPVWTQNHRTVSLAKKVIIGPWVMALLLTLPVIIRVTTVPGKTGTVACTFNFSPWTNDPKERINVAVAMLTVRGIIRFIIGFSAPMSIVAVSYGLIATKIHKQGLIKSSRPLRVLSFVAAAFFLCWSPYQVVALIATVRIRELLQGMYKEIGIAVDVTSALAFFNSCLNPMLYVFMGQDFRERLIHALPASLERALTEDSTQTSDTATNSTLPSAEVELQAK
Assay [18] addresses Potassium channel subfamily K member 9 (Homo sapiens, UniProt Q9NPC2). Kind of assay: KCNK9 flux blockade, concentration-response – cell-based, FluxOR thallium flux, selectivity assay for TASK1 inhibitor project, SAR follow-up (AID 652211).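 Also: potency is for inhibitors of the channel.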 In kind it is functional.
Assay [19] addresses Potassium channel subfamily K member 3 (Homo sapiens, UniProt O14649). Kind of assay: inhibition of human KCNK3 channel flux – CHO cells, FluxOR thallium flux, SAR follow-up (AID 652212). In kind it is functional.

Chain of Potassium channel subfamily K member 9 (Q9NPC2 whole entry): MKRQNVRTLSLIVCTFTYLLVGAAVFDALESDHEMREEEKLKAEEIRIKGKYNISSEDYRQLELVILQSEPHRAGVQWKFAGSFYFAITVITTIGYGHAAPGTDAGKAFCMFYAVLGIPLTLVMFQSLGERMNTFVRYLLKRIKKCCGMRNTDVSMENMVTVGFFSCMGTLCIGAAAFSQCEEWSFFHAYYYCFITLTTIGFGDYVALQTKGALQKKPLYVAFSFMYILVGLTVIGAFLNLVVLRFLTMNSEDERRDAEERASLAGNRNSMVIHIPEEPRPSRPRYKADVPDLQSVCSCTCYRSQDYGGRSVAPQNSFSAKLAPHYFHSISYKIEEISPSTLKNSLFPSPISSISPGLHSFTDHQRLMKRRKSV
Chain of Potassium channel subfamily K member 3 (O14649 whole entry): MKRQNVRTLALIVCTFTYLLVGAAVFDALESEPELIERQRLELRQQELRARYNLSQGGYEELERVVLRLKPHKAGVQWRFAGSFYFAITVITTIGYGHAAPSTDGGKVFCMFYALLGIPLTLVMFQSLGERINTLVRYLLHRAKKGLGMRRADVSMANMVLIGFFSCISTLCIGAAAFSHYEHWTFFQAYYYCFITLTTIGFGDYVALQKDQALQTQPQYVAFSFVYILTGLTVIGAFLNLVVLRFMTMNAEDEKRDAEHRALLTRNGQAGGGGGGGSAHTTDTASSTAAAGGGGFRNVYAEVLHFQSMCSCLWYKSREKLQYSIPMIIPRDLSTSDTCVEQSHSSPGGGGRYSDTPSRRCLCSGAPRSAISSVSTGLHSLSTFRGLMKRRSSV

The term AC50 denotes the concentration giving half of the maximal activity seen. Regarding `O=C(NC1=C(c2ccc(OC(F)(F)F)cc2)C(=O)c2ccccc2C1=O)c1ccccc1F`, the AC50 in [1] is 34.4 µM (active); in assay [2] it was 30.5 µM (active).
With `O=C(C[C@@H]1C[C@H]2c3cc(NS(=O)(=O)c4ccc(F)cc4)ccc3O[C@H]2[C@@H](CO)O1)NCc1ccc(Oc2ccccc2)cc1`, the AC50 in assay [3] is 45.6 µM (active); in [4], 21.5 µM (active); in [6], 26.7 µM (active); on Paired box protein Pax-8 it was 7.32 µM (active); in assay [7] it was 44.3 µM (active); in assay [8], 43.5 µM (active). In addition, in assay [5], the AbsAC35 amounted to 42.5 µM.
Consider `N#Cc1ccc(S(=O)(=O)Nc2cc(C(F)(F)F)ccc2N2CCCCC2)cc1`, for which the AC50 in [9] is 46.1 µM (active).
With `O=C1C=C(Nc2cccc(C(F)(F)F)c2)C(=O)c2ccccc21`, the values for the AC50 in assay [10], in [11] and in assay [12] were 463 nM (active), > 70 µM (inactive) and > 70 µM (inactive), respectively.
For the compound `Cc1cc2ncn(CCOc3ccc4c(c3)CCC4)c2cc1C`, the half-maximal activity concentration (AC50) is 33 µM (active) in the assay “cells”, > 52 µM (inactive) in assay [13] and 24.1 µM (active) in assay [14].
For orientation: IC50 means the concentration that gives 50% inhibition. For `CCN1C(=O)/C(=C2\C=Cc3ccccc3N2CC)SC1=S`, the half-maximal inhibitory concentration (IC50) at Nonstructural protein 1 was 4.15 µM (active); in assay [15], > 80 µM (inactive).
As for `CC1=CC(c2ccccc2)=Nc2ccc(C)cc2N1`, in [16], the IC50 is > 67.5 µM (inactive).
Take `Cc1nc(Nc2ccc(C(=O)O)cc2)nc(Nc2ccc(C(=O)O)cc2)c1[N+](=O)[O-]`: the IC50 in assay [17] is 211 µM (active).
Usually Ki stands for a dissociation constant, usually derived from enzyme kinetics or from competition with a known ligand. For the compound `C=CCn1c(O)cc(=O)nc1SCCCC`, the Ki at fMet-Leu-Phe receptor is 30.3 µM (inactive).
With `CCOc1ccccc1NC(=O)c1cccc(NC(=O)c2cccc(OC)c2)c1`, the IC50 in assay [18] is 2.33 µM (active); in assay [19] it was 5 nM (active).

The record behind these values is ChEMBL document CHEMBL1201862, “PubChem BioAssay data set” (2004).
